Test results: patent US6949250B2, “Selective algaecides for control of cyanochloronta” (The United States of America as represented by the …, priority 2002, dated 2005)
Values after ≈ are worked out from the molar mass of the structure shown. Like-named read-outs stand apart in the source and are kept apart here.

Experiments:
[1] = tested on: Selenastrum capricornutum; assay: Rapid bioassay screening for selective algicides (LOEC, LCIC); format: cell-based; settings: for MIC / minimal effective concentration: Selenastrum capricornutum; for MIC: read-out: LCIC (lowest-complete-inhibition concentration), Selenastrum capricornutum; for minimal effective concentration: read-out: LOEC (lowest-observed-effect concentration), Selenastrum capricornutum
Text: (§1) These were screened in the laboratory by the method of Schrader et al. (K. K. Schrader, M. Q. de Regt, C. S. Tucker and S. O. Duke, A rapid bioassay for selective algicides. Weed Technol. (1997), vol. 11, pp. 767-774) for algicidal activity.
(§2) The anthraquinone derivatives were screened for selective toxicity towards Oscillatoria perornata, previously isolated from a Mississippi catfish pond, using the method of Schrader et al. (1997). The green alga Selenastrum capricornutum (obtained from the United States Environmental Protection Agency, Corvallis, Oreg.) was used as the representative green algal species in the bioassay since it is a common species found in southeastern United States catfish ponds. Absorbance readings were graphed, and graphs were used to determine the LOEC (lowest-observed-effect concentration) and the LCIC (lowest-complete-inhibition concentration) for each anthraquinone analog. In addition, a 96-hour 50% inhibition concentration (IC50) was determined for DNA1-19-1 and DNA2-59-1 by using the method described by Schrader et al. (1998b). Stock solutions of DNA1-19-1 and DNA2-59-1 were prepared so that final concentrations screened for 96-hour IC50 determinations were as follows: 1) 0, 0.01, 0.033, 0.1, 0.333, 1.0, 3.3, and 10.0 μM DNA1-19-1 for both O. perornata and S. capricornutum; 2) 0, 0.003, 0.01, 0.033, 0.1, 0.333, 1.0, and 3.333 μM DNA2-59-1 for O. perornata; and 3) 0, 0.1, 0.333, 1.0, 3.333, 10.0, 33.333, and 100.0 μM DNA2-59-1 for S. capricornutum. Estimation of the IC50 was determined by plotting 96-hour absorbance readings against logarithmic dilution values of the anthraquinone analogs. The screening results of the anthraquinone derivatives and commercially available analogs of anthraquinone are presented in Tables 1 and 2, respectively. The results in Table 1 reveal that DNA1-19-1 and DNA2-59-1 are the most promising analogs since these two compounds had the lowest LOEC and LCIC values for O. perornata (10 nM and 100 nM, respectively). Based upon IC50 results in Table 3, DNA2-59-1 appears to be more toxic and selective towards O. perornata than DNA1-19-1.
as §2, with “(A rapid bioassay for selective algicides. Weed Technol. (1997), vol. 11, pp. 767-774).” for “(1997).”, “(K. K. Schradar, M. Q. de Regt, P. D. Tidwell, C. S. Tucker and S. O. Duke, Selective growth inhibition of the musty-odor producing cyanobacterium Oscillatoria cf. chalybea by natural compounds. Bull. Environ. Contam. Toxicol. (1998a), vol.60, pp. 651-658).” for “(1998b).”, “The screening results of the anthraquinone derivatives and commercially available analogs of anthraquinone are presented in Tables 1 and 2, respectively. The results in Table 1 reveal that DNA1-19-1 and DNA2-59-1 are the most promising analogs since these two compounds had the lowest LOEC and LCIC values for O. perornata (10 nM and 100 nM, respectively). Based upon IC50 results in Table 3, DNA2-59-1 appears to be more toxic and selective towards O. perornata than DNA1-19-1.” left out

Oscillatoria perornata = assay: as above; format: cell-based; settings: for MIC: read-out: LCIC (lowest-complete-inhibition concentration), Oscillatoria perornata; for minimal effective concentration: read-out: LOEC (lowest-observed-effect concentration), Oscillatoria perornata
Text: as §1, §2
as §2, with “(A rapid bioassay for selective algicides. Weed Technol. (1997), vol. 11, pp. 767-774).” for “(1997).”, “(K. K. Schradar, M. Q. de Regt, P. D. Tidwell, C. S. Tucker and S. O. Duke, Selective growth inhibition of the musty-odor producing cyanobacterium Oscillatoria cf. chalybea by natural compounds. Bull. Environ. Contam. Toxicol. (1998a), vol.60, pp. 651-658).” for “(1998b).”, “The screening results of the anthraquinone derivatives and commercially available analogs of anthraquinone are presented in Tables 1 and 2, respectively. The results in Table 1 reveal that DNA1-19-1 and DNA2-59-1 are the most promising analogs since these two compounds had the lowest LOEC and LCIC values for O. perornata (10 nM and 100 nM, respectively). Based upon IC50 results in Table 3, DNA2-59-1 appears to be more toxic and selective towards O. perornata than DNA1-19-1.” left out

[2] = Planktothrix perornata, rapid screening

Row | SMILES | MIC ([1]; rapid screening) | MIC (Oscillatoria perornata; [2]) | LCIC (lowest-complete-inhibition concentration), Selenastrum capricornutum ([1]; rapid screening) | LOEC (lowest-observed-effect concentration), Selenastrum capricornutum ([1]; rapid screening) | LCIC (lowest-complete-inhibition concentration), Oscillatoria perornata (Oscillatoria perornata; rapid screening) | LOEC (lowest-observed-effect concentration), Oscillatoria perornata (Oscillatoria perornata; rapid screening) | other results
1 | O=C1c2ccccc2C(=O)c2c(O)ccc(O)c21 [1,4-dihydroxyanthraquinone, reference compound] | > 100 µM | > 100 µM | – | – | – | – | –
2 | O=C1c2cccc(O)c2C(=O)c2c(O)cccc21 [1,8-dihydroxyanthraquinone, reference compound] | > 100 µM | 100 µM (≈ 24 µg/mL) | – | – | – | – | –
3 | CNc1cccc2c1C(=O)c1ccccc1C2=O [1-(methylamino) anthraquinone, reference compound] | – | – | – | – | – | – | MIC [1]: > 100 µM; MIC (Oscillatoria perornata; Planktothrix perornata): 100 µM (≈ 23.7 µg/mL)
4 | Nc1cccc2c1C(=O)c1ccccc1C2=O [1-aminoanthraquinone, reference compound] | > 100 µM | 100 µM (≈ 22.3 µg/mL) | – | – | – | – | –
5 | Nc1ccc2c(c1)C(=O)c1ccccc1C2=O [2-aminoanthraquinone, reference compound] | > 100 µM | > 100 µM | – | – | – | – | –
6 | O=C1c2ccccc2C(=O)c2cc(CO)ccc21 [2-hydroxymethyl-anthraquinone, reference compound] | – | – | – | – | – | – | MIC [1]: 100 µM (≈ 23.8 µg/mL); MIC (Oscillatoria perornata; Planktothrix perornata): 10 µM (≈ 2.38 µg/mL)
7 | CN(C)CCCNCc1ccc2c(c1)C(=O)c1ccccc1C2=O.O=P(O)(O)O.O=P(O)(O)O [DNA2-23-1, 2-[Methylamino-N-(propyl-3′-N,N-dimethylamino)]-9,10-anthraquinone diphosphate] | – | – | 10,000 nM | 10,000 nM | 1,000 nM | – | minimal effective concentration (Oscillatoria perornata; rapid screening): 0.1 µM
8 | CCN(CC)CCCNCc1ccc2c(c1)C(=O)c1ccccc1C2=O.O=P(O)(O)O.O=P(O)(O)O [DNA2-25-1, 2-[Methylamino-N-(propyl-3′-N,N-diethylaminopropyl)]-9,10-anthraquinone diphosphate] | – | – | 10,000 nM | 10,000 nM | – | – | MIC (Oscillatoria perornata; rapid screening): 0.1 µM; minimal effective concentration (Oscillatoria perornata; rapid screening): 0.1 µM
9 | CC(C)N(Cc1ccc2c(c1)C(=O)c1ccccc1C2=O)C(C)C.O=P(O)(O)O [DNA2-49-1, 2-[Methylamino-N,N-(di-1′-methylethyl)]-9,10-anthraquinone monophosphate] | – | – | 1e+06 nM | 100,000 nM | 1,000 nM | 1,000 nM | –
10 | CCN(CC)Cc1ccc2c(c1)C(=O)c1ccccc1C2=O.O=P(O)(O)O [DNA2-51-1, 2-[Methylamino-N,N-(diethyl)]-9,10-anthraquinone monophosphate] | – | – | 100,000 nM | 10,000 nM | – | – | MIC (Oscillatoria perornata; rapid screening): 0.1 µM; minimal effective concentration (Oscillatoria perornata; rapid screening): 0.1 µM
11 | CCCC(C)NCc1ccc2c(c1)C(=O)c1ccccc1C2=O.O=P(O)(O)O (stereo not shown) [DNA2-53-1, 2-[Methylamino-N-(1′-methylbutyl)]-9,10-anthraquinone monophosphate] | – | – | 100,000 nM | 100,000 nM | – | – | MIC (Oscillatoria perornata; rapid screening): 0.1 µM; minimal effective concentration (Oscillatoria perornata; rapid screening): 0.1 µM
12 | CCCCCNCc1ccc2c(c1)C(=O)c1ccccc1C2=O.O=P(O)(O)O [DNA2-55-1, 2-[Methylamino-N-(pentyl)]-9,10-anthraquinone monophosphate] | – | – | 100,000 nM | 100,000 nM | 1,000 nM | 1,000 nM | –
13 | CCCCN(CCCC)Cc1ccc2c(c1)C(=O)c1ccccc1C2=O.O=P(O)(O)O [DNA2-57-1, 2-[Methylamino-N,N-(dibutyl)]-9,10-anthraquinone monophosphate] | – | – | 1e+06 nM | 100,000 nM | 1,000 nM | 1,000 nM | –
14 | CCN(CC)CCCNC(C)c1ccc2c(c1)C(=O)c1ccccc1C2=O (stereo not shown) [DNA2-87-1, 2-[1′-Amino-N-(propyl-3″-N,N-diethylamino)ethyl]-9,10-anthraquinone] | – | – | 100,000 nM | 100,000 nM | 100,000 nM | 1,000 nM | –
15 | CC(C)NC(C)c1ccc2c(c1)C(=O)c1ccccc1C2=O (stereo not shown) [DNA2-89-1, 2-[1′-Amino-N-(1′-methylethyl)ethyl]-9,10-anthraquinone 9,10-anthraquinone] | – | – | 100,000 nM | 100,000 nM | 1,000 nM | 1,000 nM | –
16 | CCN(CC)CCCNc1cccc2c1C(=O)c1ccccc1C2=O.O=P(O)(O)O [DNA2-91-1, 1-amino-N-(propyl-3′-N,N-diethylamino)-9,10-anthraquinone phosphate] | – | – | 100,000 nM | 100,000 nM | 10,000 nM | 10,000 nM | –
17 | CN(C)CCCNc1cccc2c1C(=O)c1ccccc1C2=O.O=P(O)(O)O [DNA2-93-1, 1-amino-N-(propyl-3′-N,N-dimethylamino)-9,10-anthraquinone phosphate] | – | – | 100,000 nM | 100,000 nM | 1,000 nM | 1,000 nM | –
18 | COCCOc1ccc2c(c1)C(=O)c1ccccc1C2=O [DNA2-97-2, 2-(2-Methoxyethoxy)-9,10-anthraquinone] | > 100 µM | 10 µM (≈ 2.82 µg/mL) | – | – | – | – | minimal effective concentration ([1]; rapid screening): > 100 µM; minimal effective concentration (Oscillatoria perornata; [2]): 10 µM
19 | O=C1c2ccccc2C(=O)c2cc(OCCOCCOCCO)ccc21 [DNA2-99-2, 2-[2-[2-(2-Hydroxyethoxy)ethoxy]ethoxy]-9,10-anthraquinone] | > 100 µM | 10 µM (≈ 3.56 µg/mL) | – | – | – | – | minimal effective concentration ([1]; rapid screening): > 100 µM; minimal effective concentration (Oscillatoria perornata; [2]): 10 µM
20 | COCCOCCOc1ccc2c(c1)C(=O)c1ccccc1C2=O [DNA3-5-1, 2-[2-(2-Methoxyethoxy)ethoxy]-9,10-anthraquinone] | > 100 µM | 10 µM (≈ 3.26 µg/mL) | – | – | – | – | minimal effective concentration ([1]; rapid screening): > 100 µM; minimal effective concentration (Oscillatoria perornata; [2]): 0.1 µM
21 | COCCOCCOc1cccc2c1C(=O)c1ccccc1C2=O [DNA3-7-1, 1-[2-(2-Methoxyethoxy)ethoxy]-9,10-anthraquinone] | > 100 µM | 100 µM (≈ 32.6 µg/mL) | – | – | – | – | minimal effective concentration ([1]; rapid screening): > 100 µM; minimal effective concentration (Oscillatoria perornata; [2]): 10 µM
22 | COCCOCCOCCOc1ccc2c(c1)C(=O)c1ccccc1C2=O [DNA3-9-1, 2-[2-[2-(2-methoxyethoxy)ethoxy]ethoxy]-9,10-anthraquinone] | > 100 µM | 10 µM (≈ 3.7 µg/mL) | – | – | – | – | minimal effective concentration ([1]; rapid screening): > 100 µM; minimal effective concentration (Oscillatoria perornata; [2]): 10 µM
